The source of these data is patent publication US20110306621A1, “ACYLGUANIDINE DERIVATIVES” (priority 2009, published 2011).

The structures appear in SMILES notation.

The assay deals with T1, human 5-HT5A receptor (Homo sapiens, UniProt P47898).
T1 construct: expressed in transfected cells; membranes used
T1 sequence (P47898 whole entry): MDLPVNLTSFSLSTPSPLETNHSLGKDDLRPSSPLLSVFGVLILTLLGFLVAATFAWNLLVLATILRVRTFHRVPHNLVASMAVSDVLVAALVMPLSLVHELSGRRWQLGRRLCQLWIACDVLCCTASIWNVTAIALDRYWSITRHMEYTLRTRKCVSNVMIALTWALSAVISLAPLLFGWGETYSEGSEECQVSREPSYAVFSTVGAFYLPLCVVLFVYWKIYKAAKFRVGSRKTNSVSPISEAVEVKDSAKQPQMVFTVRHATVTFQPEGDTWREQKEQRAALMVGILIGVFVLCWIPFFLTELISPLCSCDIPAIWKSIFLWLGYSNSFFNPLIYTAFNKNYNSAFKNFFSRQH
Briefly: Test on a human 5-HT5A receptor binding inhibition ([3H]5-CT). As to conditions: membrane from HEK293 cells for forced expression of human 5-HT5A receptor; Ki calculated from IC50 and Kd of [3H]5-CT (4.95 nM). How it is done:
The ORF (open reading frame; protein coding region) of a human 5-HT5A receptor (Genbank AF498985) was cloned from a human hippocampus cDNA library, and then inserted into a pCR2.1 vector (Invitrogen), and Escherichia coli containing the plasmid was cultured in a large amount. Next, the full-length cDNA sequence of the human 5-HT5A receptor was analyzed, and recombined into a pcDNA3.1 vector (Invitrogen) as an expression vector and cultured in a large amount. HEK293 established cells (ATCC) derived from the human fetal kidney were seeded, the expression plasmid (1 μg) obtained above were added thereto with LIPOFECTAMINE 2000 (Invitrogen; 2 μl), the gene was transfected into HEK293 cells, and the expression cells were screened with a drug-resistant marker, Geneticin (G418 sulfate 500 μg/ml; Kanto Chemical Co., Inc.). Thus prepared recombinant cells which expressed the gene were cultured in a medium containing D-MEM (Dulbecco's modified eagle medium, Sigma), 10% FCS (Fetal calf serum: fetal bovine serum), 1% Pc./Sm (Penicillin/Streptomycin, Invitrogen), and 500 μg/ml G418 for 3 days. These experimental operations followed a manual for gene operation experiment and an instruction appended in a reagent, and the like, such as a known method (Sambrook, J. et al, Molecular Cloning-A Laboratory Manual”, Cold Spring Harabor laboratory, NY, 1989).
HEK293 cells for forced expressions of a human 5-HT5A receptor were cultured in a F500 plate, and scraped with a scraper. After centrifugation, the precipitate was collected, and an incubation buffer (50 mM Tris (HCl) (pH 7.4), 10 mM MgSO4, and 0.5 mM EDTA (ethylenediamine tetraacetic acid)) was added thereto. After homogenization, it was further centrifuged, and the incubation buffer was added to the precipitate, followed by thoroughly suspending. The operation was repeated, and protein concentration was measured, thereby completing preparation of the membrane.
A solution of the compound to be tested and 100 μM 5-CT (5-carboxamidetriptamine) in DMSO was added to a 96-well plate at 2 μl/well, suspended in an incubation buffer, and a membrane from HEK293 cells for forced expressions of a human 5-HT5A receptor prepared at 200 μg/ml was added at 100 μl/well. After incubation at room temperature for 15 minutes, a [^3H]5-CT solution (2 nM [^3H]5-CT, incubation buffer) was added thereto at 100 μl/well.
Separately, 100 μl of the solution was distributed into a liquid scintillation vial, and 2 ml of Aquasol II (registered trademark) was added thereto, followed by stirring. Then, radioactivity was measured by a liquid scintillation counter. It was incubated at 37° C. for 60 minutes. The reaction mixture was sucked into 96-well GF/C filter plate that had been pre-treated with 0.2% polyethyleneimine, and washed six times with an ice-cooled, 50 mM Tris (pH 7.5) buffer. The GF/C filter plate was dried.
Microscint TMPS (registered trademark) was added thereto at 40 μl/well. Radioactivity remaining on the GF/C filter plate was measured by a top counter.
The [^3H]5-CT binding inhibiting activity by the compound to be tested in each experiment was determined as an IC50 value with a radioactivity upon addition of DMSO alone being 0% inhibition, and a radioactivity upon addition of 1 μM 5-CT being 100% inhibition. Separately, Ki values were calculated from the Kd value of the [^3H]5-CT determined from Scatchard analysis, by the following equation.
Ki=IC50 (1+Concentraion of ligand added/Kd (4.95 nM))
As for `Cc1nc(C)c(-c2c(F)ccc3ccc(C(=O)N=C(N)N)cc23)s1` [Example 186], the Ki was 0.3 to 3 nM. Turning to `COc1cc(-c2cccc3ccc(C(=O)N=C(N)N)cc23)c(Cl)cn1` [Example 63], the Ki was 3 to 30 nM.

As for `COc1ccc(-c2cccc3ccc(C(=O)N=C(N)N)cc23)cn1` [Example 97], the Ki was 3 to 30 nM. As to `N#Cc1cc(F)cc(F)c1-c1cccc2ccc(C(=O)N=C(N)N)cc12` [Example 149], the Ki is 0.3 to 3 nM. The same measure for `COc1c(F)cccc1-c1cccc2ccc(C(=O)N=C(N)N)cc12` [Example 27]: 3 to 30 nM; for `NC(N)=NC(=O)c1ccc2cccc(-c3ccccc3)c2c1` [Example 87]: 0.3 to 3 nM.

Turning to `NC(N)=NC(=O)c1ccc2ccc(F)c(-c3ccncc3F)c2c1` [Example 113], the Ki was 0.3 to 3 nM.

Take `NC(N)=NC(=O)c1ccc2cccc(-c3cccc4ncccc34)c2c1` [Example 109]: the inhibitory constant (Ki) is 0.3 to 3 nM. `NC(N)=NC(=O)c1ccc2cccc(-c3ncc(F)cc3Cl)c2c1` [Example 169]: the Ki was 0.3 to 3 nM. In the case of `N#Cc1ccc(F)cc1-c1cccc2ccc(C(=O)N=C(N)N)cc12` [Example 39], the Ki is 30 to 300 nM. Regarding `Cc1ccncc1-c1cccc2ccc(C(=O)N=C(N)N)cc12` [Example 100], the inhibition constant (Ki) is 3 to 30 nM. The same measure for `N#Cc1cccnc1-c1cccc2ccc(C(=O)N=C(N)N)cc12` [Example 181]: 30 to 300 nM; for `N#Cc1cccc(Cl)c1-c1cccc2ccc(C(=O)N=C(N)N)cc12` [Example 164]: 3 to 30 nM. Consider `NC(N)=NC(=O)c1ccc2cccc(-c3c(F)ccc(O)c3Cl)c2c1` [Example 119], for which the inhibition constant Ki was 0.3 to 3 nM. Under `N#Cc1cc(-c2cccc3ccc(C(=O)N=C(N)N)cc23)ccn1` [Example 170] stands 3 to 30 nM; under `Cn1nccc1-c1cccc2ccc(C(=O)N=C(N)N)cc12` [Example 79], 3 to 30 nM. On to `NC(N)=NC(=O)c1ccc2cccc(-c3cncc(Cl)c3)c2c1` [Example 74], for which the Ki is 3 to 30 nM. Under `NC(N)=NC(=O)c1ccc2cccc(-c3cc(Cl)c(F)cc3F)c2c1` [Example 139] stands 0.3 to 3 nM. The same measure for `COc1ccc(C#N)cc1-c1cccc2ccc(C(=O)N=C(N)N)cc12` [Example 15]: 3 to 30 nM; for `NC(N)=NC(=O)c1ccc2ccc(F)c(-c3ccccc3O)c2c1` [Example 161]: 0.3 to 3 nM; for `COc1c(F)cc(F)c(-c2cccc3ccc(C(=O)N=C(N)N)cc23)c1F` [Example 127]: 3 to 30 nM. For `NC(N)=NC(=O)c1ccc2c(F)ccc(-c3c(F)cccc3F)c2c1` [Example 175], the Ki was 0.3 to 3 nM. Under `N#Cc1cc(Cl)ccc1-c1cccc2ccc(C(=O)N=C(N)N)cc12` [Example 33] stands 3 to 30 nM. The same measure for `COc1cc(C#N)ccc1-c1ccc(F)c2ccc(C(=O)N=C(N)N)cc12` [Example 188]: 0.3 to 3 nM; for `NC(N)=NC(=O)c1ccc2cccc(-c3ccccc3Cl)c2c1` [Example 7]: 0.3 to 3 nM; for `Cc1ccc2ccc(C(=O)N=C(N)N)cc2c1-c1ccc(C#N)cc1` [Example 10]: 0.3 to 3 nM. The same measure for `CCOc1ncc(Cl)c(-c2cccc3ccc(C(=O)N=C(N)N)cc23)c1F` [Example 66]: 0.3 to 3 nM; for `NC(N)=NC(=O)c1ccc2cccc(-c3ncc(Cl)cc3Cl)c2c1` [Example 151]: 0.3 to 3 nM; for `Cc1nc(-c2cccc3ccc(C(=O)N=C(N)N)cc23)ccc1F` [Example 158]: 30 to 300 nM. For the compound `NC(N)=NC(=O)c1ccc2cccc(-c3cc(Cl)ccc3Cl)c2c1` [Example 76], the Ki was 0.3 to 3 nM. In the case of `NC(N)=NC(=O)c1ccc2cccc(-c3ccnc4ccccc34)c2c1` [Example 129], the Ki was 0.3 to 3 nM.

As to `NC(N)=NC(=O)c1ccc2cccc(-c3ccnc(C4CC4)c3F)c2c1` [Example 198], the Ki is 0.3 to 3 nM. Under `N#Cc1c(F)cccc1-c1cccc2ccc(C(=O)N=C(N)N)cc12` [Example 29] stands 3 to 30 nM; under `NC(N)=NC(=O)c1ccc2cccc(-c3c(F)cncc3Cl)c2c1` [Example 148], 0.3 to 3 nM; under `Cc1ccc(-c2cccc3ccc(C(=O)N=C(N)N)cc23)cn1` [Example 24], 3 to 30 nM. Regarding `NC(N)=NC(=O)c1ccc2cccc(-c3cccc(Cl)c3O)c2c1` [Example 178], the Ki is 0.3 to 3 nM. On to `NC(N)=NC(=O)c1ccc2cccc(-c3ccc(F)cc3F)c2c1` [Example 35], for which the Ki is 0.3 to 3 nM. The same measure for `NC(N)=NC(=O)c1ccc2cccc(-c3ccc(F)cc3)c2c1` [Example 88]: 0.3 to 3 nM. The same measure for `NC(N)=NC(=O)c1ccc2cccc(-c3c(F)cccc3F)c2c1` [Example 36]: 0.3 to 3 nM; for `NC(N)=NC(=O)c1ccc2cccc(-c3ccccc3-c3ccccc3)c2c1` [Example 101]: 30 to 300 nM; for `NC(N)=NC(=O)c1ccc2cccc(-c3cc(F)ncc3Cl)c2c1` [Example 65]: 3 to 30 nM. Regarding `Cc1nc(-c2ccc(-c3cccc4ccc(C(=O)N=C(N)N)cc34)cc2)no1` [Example 137], the Ki is 3 to 30 nM. Under `NC(N)=NC(=O)c1ccc2cccc(-c3cccc(O)c3F)c2c1` [Example 106] stands 0.3 to 3 nM; under `NC(N)=NC(=O)c1ccc2cccc(-c3cncc(F)c3)c2c1` [Example 55], 3 to 30 nM. As for `N#Cc1ncccc1-c1cccc2ccc(C(=O)N=C(N)N)cc12` [Example 56], the inhibition constant (Ki) is 3 to 30 nM. Turning to `N#Cc1ccc(-c2c(Cl)ccc3ccc(C(=O)N=C(N)N)cc23)cc1` [Example 125], the Ki is 0.3 to 3 nM.

For `NC(=O)c1cc(-c2cccc3ccc(C(=O)N=C(N)N)cc23)ccn1` [Example 171], the Ki is 30 to 300 nM. Take `NC(N)=NC(=O)c1ccc2cccc(-c3c(F)cc(Cl)cc3F)c2c1` [Example 43]: the Ki is 0.3 to 3 nM.

Consider `COc1cc(F)ccc1-c1cccc2ccc(C(=O)N=C(N)N)cc12` [Example 4], for which the Ki was 0.3 to 3 nM.

On to `COc1ccc(-c2cccc3ccc(C(=O)N=C(N)N)cc23)cc1` [Example 90], for which the Ki is 0.3 to 3 nM. Turning to `N#Cc1c(Cl)cccc1-c1cccc2ccc(C(=O)N=C(N)N)cc12` [Example 85], the Ki was 0.3 to 3 nM.

As to `NC(N)=NC(=O)c1ccc2cccc(-c3cccs3)c2c1` [Example 46], the Ki is 0.3 to 3 nM. Consider `NC(N)=NC(=O)c1ccc2cccc(-c3ccc(F)cc3OC(F)F)c2c1` [Example 94], for which the Ki was 3 to 30 nM. Under `NC(N)=NC(=O)c1ccc2cccc(-c3cccc4nonc34)c2c1` [Example 179] stands 3 to 30 nM; under `NC(N)=NC(=O)c1ccc2cccc(-c3ccc(Cl)cc3O)c2c1` [Example 150], 0.3 to 3 nM; under `NC(N)=NC(=O)c1ccc2cccc(-c3cncs3)c2c1` [Example 182], 3 to 30 nM. As to `NC(N)=NC(=O)c1ccc2cccc(-c3cncc4ccccc34)c2c1` [Example 130], the Ki is 3 to 30 nM. With `NC(N)=NC(=O)c1ccc2cccc(-c3cc(F)ccc3F)c2c1` [Example 68], the Ki was 0.3 to 3 nM. As to `Cc1ccsc1-c1cccc2ccc(C(=O)N=C(N)N)cc12` [Example 48], the Ki was 0.3 to 3 nM. The same measure for `NC(N)=NC(=O)c1ccc2cccc(-c3cc(Cl)cnc3F)c2c1` [Example 84]: 3 to 30 nM. The same measure for `COc1cncc(-c2cccc3ccc(C(=O)N=C(N)N)cc23)c1` [Example 111]: 30 to 300 nM; for `NC(N)=NC(=O)c1ccc2cccc(-c3ccncc3Cl)c2c1` [Example 44]: 0.3 to 3 nM; for `NC(N)=NC(=O)c1ccc2cccc(-c3c(O)cccc3Cl)c2c1` [Example 116]: 0.3 to 3 nM. As to `NC(N)=NC(=O)c1ccc2cccc(-c3cc(F)c(F)cc3F)c2c1` [Example 96], the Ki is 0.3 to 3 nM. Regarding `NC(N)=NC(=O)c1ccc2cccc(-c3nccc4ccccc34)c2c1` [Example 165], the inhibitory constant (Ki) was 3 to 30 nM.
